Active and inactive are the calls of the source.
Experiments:
Bcl-2-related protein A1 [1] = biological target: T1, Bcl-2-related protein A1 (Mus musculus, UniProt Q07440); assay type: functional;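 note: confirmatory dose–response counterscreen on Bfl-1, used to check hits from a UBC13 polyubiquitin inhibitor campaign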
T1 sequence (Q07440 whole entry): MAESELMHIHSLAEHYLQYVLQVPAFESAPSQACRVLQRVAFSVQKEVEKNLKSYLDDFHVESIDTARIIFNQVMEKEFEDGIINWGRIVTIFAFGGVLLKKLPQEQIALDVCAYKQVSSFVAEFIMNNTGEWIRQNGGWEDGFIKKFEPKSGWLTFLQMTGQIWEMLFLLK

[2] = biological target: T2, Ubiquitin-conjugating enzyme E2 N (Homo sapiens, UniProt P61088); assay type: functional
T2 sequence (P61088 whole entry): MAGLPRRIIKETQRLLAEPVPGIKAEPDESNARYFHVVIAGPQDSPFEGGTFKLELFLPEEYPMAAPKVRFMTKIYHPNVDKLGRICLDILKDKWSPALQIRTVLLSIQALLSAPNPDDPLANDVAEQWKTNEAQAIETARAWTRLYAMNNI

[3] = biological target: T2, Ubiquitin-conjugating enzyme E2 N; assay type: functional; remark: listed apart in the source
[4] = biological target: Glyceraldehyde-3-phosphate dehydrogenase (Homo sapiens, UniProt P04406)
Bcl-2-related protein A1 [5] = biological target: T1, Bcl-2-related protein A1; test: Bfl-1 inhibitors blocking BH3 peptide binding, confirmation, biochemical, TR-FRET, mouse Bfl-1 (AID 621);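 note: TR-FRET binding of GST-Bfl-1 to FITC-labelled Bid peptide via terbium antibody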
Bcl-2-related protein A1 [6] = biological target: T1, Bcl-2-related protein A1; test: Bfl-1 binding inhibitors, SAR follow-up, biochemical, fluorescence polarization (AID 1070)
[7] = Luminescence Cell-Based Dose Response to Identify Activators of 5'UTR Stem-Loop Driven Prion Protein mRNA Translation in H4-C Neuroglioblastoma Cells. [Related pubchem assays: 1829 (Project Summary), 1814 (Primary HTS)]; assay type: functional
[8] = Luminescence Cell-Based Dose Confirmation HTS to Identify Activators of 5'UTR Stem-Loop Driven Alpha-Synuclein mRNA Translation in H4 Neuroglioblastoma Cells. [Related pubchem assays: 1829 (Project Summary), 1814 (Primary HTS)]; assay type: functional
[9] = Luminescence Cell-Based Dose Response HTS to Identify Activators of Luciferase Translation or Activity in H4 […] Cells. [Related pubchem assays: 1829 (Project Summary), 1814 (Primary HTS)]; assay type: functional
H4 = test: Luminescence Cell-Based Dose Response HTS to Identify Activators of 5'UTR Stem-Loop Driven Prion Protein mRNA Translation in H4 Neuroglioblastoma Cells. [Related pubchem assays: 1829 (Project Summary), 1814 (Primary HTS)]; assay type: functional; settings: Homo sapiens
[10] = Luminescence Cell-Based Dose Response to Identify Activators of Luciferase Translation or Activity in H4-C Neuroglioblastoma Cells. [Related pubchem assays: 1829 (Project Summary), 1814 (Primary HTS)]; assay type: functional
[11] = Luminescence Cell-Based Dose Confirmation to Identify Activators of 5'UTR Stem-Loop Driven Alpha-Synuclein mRNA Translation in H4 Neuroglioblastoma Cells. [Related pubchem assays: 1829 (Project Summary), 1814 (Primary HTS)]; assay type: functional
Protein Tat = biological target: T3, Protein Tat (Human immunodeficiency virus type 1 group M subtype B (isolate HXB2)(HIV-1), UniProt P04608); assay type: functional;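 note: tat binding to TAR RNA read out by fluorescence polarization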
T3 sequence (P04608 whole entry): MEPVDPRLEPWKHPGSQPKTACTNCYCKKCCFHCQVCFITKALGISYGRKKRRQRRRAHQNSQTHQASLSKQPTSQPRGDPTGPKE

[12] = THP-1 cell cytotoxicity, dose response, cytotoxicity control for Vif-APOBEC3G degradation inhibitor project, THP-1 cells (AID 1117359); assay type: functional; settings: Human immunodeficiency virus 1, THP-1
[13] = inhibitors of Bluetongue virus cytopathic effect, confirmation, arbovirus, BSR cells (AID 1250); assay type: functional;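 note: protection from viral cytopathic effect measured as cell viability by ATP luminescence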
[14] = microbe, parasite or virus in culture; assay type: functional; settings: Mycobacterium tuberculosis
H9c2 = test: cells; assay type: functional, cell-based; settings: Rattus norvegicus, H9c2, Myocardium;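 note: confirmatory concentration-response retest of ultra-high-throughput screening hits for modulation of myocardial damage; cell death induced by hydrogen peroxide oxidative stress; compound pretreatment for 60 min then peroxide exposure for 2 h; potency is for protecting the cells against peroxide damage rather than for killing them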
SUMO-activating enzyme [15] = biological target: T4, SUMO-activating enzyme (Homo sapiens, UniProt Q9UBT2); test: SUMOylation inhibitor hit validation, confirmation, SUMOylation inhibitor project, biochemical, AlphaScreen (AID 2018); assay type: functional
SUMO-activating enzyme [16] = biological target: T4, SUMO-activating enzyme; test: inhibitors of in vitro SUMOylation cascade, primary screen, biochemical, HTRF, uHTS (AID 2006); assay type: protein-complex assay
[17] = biological target: T5, Heat shock factor protein 1 (Mus musculus, UniProt P38532); test: HSF1 potentiators in luciferase reporter cells, confirmation, cell-based, NIH3T3, luminescence, dose retest (AID 435004); assay type: functional;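 note: stress induced by proteasome inhibitor MG132 added 30 min after compound; luciferase reporter driven by HSF1 response element in NIH3T3 cells; actives raise luminescence as potentiators of the MG132 stress response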
T5 sequence (P38532 whole entry): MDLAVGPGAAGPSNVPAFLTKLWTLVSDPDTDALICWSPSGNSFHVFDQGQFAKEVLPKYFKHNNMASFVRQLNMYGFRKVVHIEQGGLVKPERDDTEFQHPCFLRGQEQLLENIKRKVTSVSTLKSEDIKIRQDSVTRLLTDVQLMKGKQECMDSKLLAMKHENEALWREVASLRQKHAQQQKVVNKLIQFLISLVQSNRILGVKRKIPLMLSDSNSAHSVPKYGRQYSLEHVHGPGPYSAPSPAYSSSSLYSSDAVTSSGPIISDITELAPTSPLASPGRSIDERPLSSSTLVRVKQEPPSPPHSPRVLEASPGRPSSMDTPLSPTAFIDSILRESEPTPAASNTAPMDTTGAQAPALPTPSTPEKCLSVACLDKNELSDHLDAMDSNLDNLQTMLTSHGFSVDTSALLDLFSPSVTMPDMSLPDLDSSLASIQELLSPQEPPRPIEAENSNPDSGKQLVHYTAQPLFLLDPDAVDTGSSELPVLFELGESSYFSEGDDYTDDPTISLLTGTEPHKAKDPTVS

[18] = biological target: T6, Replicative DNA helicase DnaB (Mycobacterium tuberculosis, UniProt P9WMR3); test: DnaB intein splicing inhibitors, dose response, biochemical, cell-free fluorescence (AID 449749); assay type: functional
T6 sequence (P9WMR3 whole entry): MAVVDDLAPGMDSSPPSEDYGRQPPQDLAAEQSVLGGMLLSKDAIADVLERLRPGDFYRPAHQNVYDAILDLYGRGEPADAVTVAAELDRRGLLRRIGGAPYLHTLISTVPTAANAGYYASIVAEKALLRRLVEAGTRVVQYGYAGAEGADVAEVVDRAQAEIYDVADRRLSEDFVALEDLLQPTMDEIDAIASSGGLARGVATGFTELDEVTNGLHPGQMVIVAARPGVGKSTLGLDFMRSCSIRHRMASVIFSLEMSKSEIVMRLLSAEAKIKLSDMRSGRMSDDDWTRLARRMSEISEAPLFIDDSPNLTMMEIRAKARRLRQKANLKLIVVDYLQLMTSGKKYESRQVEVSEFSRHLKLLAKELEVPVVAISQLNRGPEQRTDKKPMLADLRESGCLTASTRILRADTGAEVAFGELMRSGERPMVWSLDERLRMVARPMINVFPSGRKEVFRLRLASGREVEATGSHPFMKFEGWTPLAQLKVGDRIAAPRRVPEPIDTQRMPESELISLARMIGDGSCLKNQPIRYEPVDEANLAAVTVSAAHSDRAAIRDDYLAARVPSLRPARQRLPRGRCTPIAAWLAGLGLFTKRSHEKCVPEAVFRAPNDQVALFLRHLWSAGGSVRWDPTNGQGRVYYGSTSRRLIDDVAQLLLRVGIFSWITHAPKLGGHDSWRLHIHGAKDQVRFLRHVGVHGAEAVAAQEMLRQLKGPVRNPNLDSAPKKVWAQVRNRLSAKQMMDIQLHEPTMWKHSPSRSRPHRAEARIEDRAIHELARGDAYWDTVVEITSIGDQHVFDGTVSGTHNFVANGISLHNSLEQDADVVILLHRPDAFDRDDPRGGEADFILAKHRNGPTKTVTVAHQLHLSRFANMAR

Protein RecA = biological target: T7, Protein RecA (Mycobacterium tuberculosis, UniProt P9WHJ3); test: Fluorescence Cell-Free Homogeneous Dose Retest to Identify Inhibitors of RecA-Intein Splicing Activity. [Related pubchem assays (depositor defined):AID2097, AID2223, AID489010, AID492950]; assay type: functional
T7 sequence (P9WHJ3 whole entry): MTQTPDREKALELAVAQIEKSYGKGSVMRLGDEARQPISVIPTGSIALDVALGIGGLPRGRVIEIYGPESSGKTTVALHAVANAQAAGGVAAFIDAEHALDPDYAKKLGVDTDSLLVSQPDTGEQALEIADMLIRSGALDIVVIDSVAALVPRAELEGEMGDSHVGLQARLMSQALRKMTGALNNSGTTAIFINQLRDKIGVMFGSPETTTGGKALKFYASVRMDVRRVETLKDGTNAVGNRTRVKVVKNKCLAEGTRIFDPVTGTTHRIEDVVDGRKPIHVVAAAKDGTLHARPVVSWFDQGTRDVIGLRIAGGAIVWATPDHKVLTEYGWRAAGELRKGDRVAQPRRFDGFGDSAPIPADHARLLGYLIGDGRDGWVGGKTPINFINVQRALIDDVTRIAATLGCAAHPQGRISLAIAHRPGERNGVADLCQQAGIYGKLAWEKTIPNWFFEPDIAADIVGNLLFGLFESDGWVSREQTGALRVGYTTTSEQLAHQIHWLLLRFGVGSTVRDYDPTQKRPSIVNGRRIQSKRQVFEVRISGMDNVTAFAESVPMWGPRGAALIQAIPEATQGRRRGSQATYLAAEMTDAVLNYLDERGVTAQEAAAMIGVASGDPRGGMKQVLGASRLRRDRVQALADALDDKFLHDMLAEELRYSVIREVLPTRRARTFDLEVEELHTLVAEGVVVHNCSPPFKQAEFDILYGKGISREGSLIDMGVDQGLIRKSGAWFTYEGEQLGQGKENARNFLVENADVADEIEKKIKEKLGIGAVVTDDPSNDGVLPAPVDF

[19] = inhibitors of PGC1a acetylation in cells, dose response, cell-based, cherry-picked samples (AID 720514); assay type: functional;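 note: potency may reflect raised or lowered acetylation signal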

T4 sequence (Q9UBE0 whole entry): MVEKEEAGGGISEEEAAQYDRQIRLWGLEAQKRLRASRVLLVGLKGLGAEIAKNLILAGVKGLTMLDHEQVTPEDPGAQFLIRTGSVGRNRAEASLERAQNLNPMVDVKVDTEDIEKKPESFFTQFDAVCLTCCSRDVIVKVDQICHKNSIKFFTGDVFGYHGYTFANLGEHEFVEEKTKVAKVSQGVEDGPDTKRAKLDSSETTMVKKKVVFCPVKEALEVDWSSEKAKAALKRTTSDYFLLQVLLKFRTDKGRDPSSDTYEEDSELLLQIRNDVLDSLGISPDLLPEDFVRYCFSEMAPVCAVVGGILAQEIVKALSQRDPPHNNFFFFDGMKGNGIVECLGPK
T4 sequence (Q9UBT2 whole entry): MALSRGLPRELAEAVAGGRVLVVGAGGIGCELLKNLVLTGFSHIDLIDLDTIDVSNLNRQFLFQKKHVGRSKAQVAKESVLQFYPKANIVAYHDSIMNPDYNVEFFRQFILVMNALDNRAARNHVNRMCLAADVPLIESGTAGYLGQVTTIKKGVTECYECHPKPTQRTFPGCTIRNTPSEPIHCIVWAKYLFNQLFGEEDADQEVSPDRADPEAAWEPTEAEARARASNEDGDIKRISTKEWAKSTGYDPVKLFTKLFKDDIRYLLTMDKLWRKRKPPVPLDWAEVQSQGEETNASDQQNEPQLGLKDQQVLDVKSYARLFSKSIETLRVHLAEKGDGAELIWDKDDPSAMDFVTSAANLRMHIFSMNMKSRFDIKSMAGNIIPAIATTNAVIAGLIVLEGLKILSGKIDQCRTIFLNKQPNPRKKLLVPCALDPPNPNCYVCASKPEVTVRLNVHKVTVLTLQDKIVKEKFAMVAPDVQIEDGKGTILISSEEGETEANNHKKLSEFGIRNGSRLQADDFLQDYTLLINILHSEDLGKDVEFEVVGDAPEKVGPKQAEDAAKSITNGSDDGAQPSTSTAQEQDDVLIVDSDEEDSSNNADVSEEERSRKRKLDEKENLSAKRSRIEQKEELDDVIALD
Glyceraldehyde-3-phosphate dehydrogenase, sequence (P04406 whole entry): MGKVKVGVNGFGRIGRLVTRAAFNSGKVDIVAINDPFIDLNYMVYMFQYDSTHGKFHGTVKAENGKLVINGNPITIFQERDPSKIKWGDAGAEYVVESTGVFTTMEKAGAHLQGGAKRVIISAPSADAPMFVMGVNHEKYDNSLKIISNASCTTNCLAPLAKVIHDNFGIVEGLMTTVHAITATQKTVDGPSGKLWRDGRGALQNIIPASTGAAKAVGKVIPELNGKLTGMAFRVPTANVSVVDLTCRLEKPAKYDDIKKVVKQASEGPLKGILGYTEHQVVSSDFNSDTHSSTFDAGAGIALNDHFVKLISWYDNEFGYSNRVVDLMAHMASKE

Cc1cccc(C)c1NC(=O)Cn1c(=O)n(CCCC(=O)NC2CCN(Cc3ccccc3)CC2)c(=O)c2ccccc21
IC50 (Bcl-2-related protein A1 [1]): > 20 µM (inactive) | IC50 [2]: 6.42 µM (active) | IC50 [3]: 4.06 µM (active)

Cc1ccc(Cl)c(N2C(=O)C(Cl)=C(N3CCN(C)CC3)C2=O)c1Cl
IC50 [4]: > 100 µM (not active) | IC50 (Bcl-2-related protein A1 [5]): 11.1 µM (active) | IC50 (Bcl-2-related protein A1 [6]): 23.9 µM (active)

Cc1ccc(Nc2[nH]cnc3ncnc2-3)cc1Cl
EC50 [7]: 745 nM (active) | EC50 [8]: < 100 nM (active) | EC50 [9]: 268 nM (inconclusive) | EC50 (H4): > 120 µM (not active) | EC50 [10]: > 12 µM (not active) | EC50 [11]: 604 nM (active)

Cc1ccc(-c2cc(-c3ccc4c(c3)OCO4)c(C#N)c(N)n2)o1
IC50 (Protein Tat): 30.5 µM (inconclusive) | CC50 [12]: 24.7 µM (active)

CCOC(=O)c1s/c(=N\C(=O)c2ccc(C)c(C)c2)n(C)c1C
EC50 [7]: 543 nM (active) | EC50 [9]: < 100 nM (active) | EC50 [10]: 0.601 µM (active) | EC50 [11]: 718 nM (active)

CCC(NC(=O)Nc1ccc(O)cc1)(C(F)(F)F)C(F)(F)F
IC50 (Protein Tat): 40.2 µM (inconclusive)

O=C(Nc1ccccc1C(=O)O)c1ccc(NC(=O)c2ccc(Br)o2)cc1
IC50 [13]: 35.4 µM (active)

c1ccc(CN2CCN(CCCNc3ccc4nnc(-c5ccccc5)n4n3)CC2)cc1
CC50 [14]: 35.6 µM (active) | IC50 (H9c2): > 79 µM (inactive) | IC50 (Protein Tat): > 100 µM (active)

CCCCn1c(=O)[nH]c(=O)c2c1nc(-c1ccc(-c3ccc(F)cc3)o1)n2C
IC50 (SUMO-activating enzyme [15]): > 100 µM (inactive) | IC50 (SUMO-activating enzyme [16]): > 100 µM (inactive)

O=S(=O)(c1ccccc1)c1ncc(C(F)(F)F)cc1Cl
EC50 [17]: 15.9 µM (active) | AC50 [18]: 18.4 µM (active) | EC50 (Protein RecA): 3.16 µM (active) | AC50 [19]: 11 µM (active)

Source: ChEMBL document CHEMBL1201862, “PubChem BioAssay data set” (2004)
